The values that follow are results of earlier work, collected in article PMC3680490, “Fragment-Based Screening Maps Inhibitor Interactions in the ATP-Binding Site of Checkpoint Kinase 2” (PLoS ONE, 2013).

The conditions of series [1]: cited from earlier work.
Series [2] deals with ovarian cancer cell lines. The following applies: cited from earlier work.
The test system of the next series is cancer cell lines. Details: method as in PMID 19741151. To be noted: cited from earlier work.

As to `COc1cc2nc(-c3cc(F)ccc3O)nc(N[C@@H]3CNC[C@H]3C(C)(C)O)c2cc1OC` [CCT241533], the “Potentiation of the cytotoxicity of PARP inhibitors such as AG14447 and olaparib” value in series [1] is “potentiates the cytotoxicity”. Further, the “Potentiation in combination with genotoxic agents” value in series [2] was “no such effects have been observed”.
`C/C(=N\NC(=N)N)c1ccc(NC(=O)c2cc3cccc([N+](=O)[O-])c3[nH]2)cc1` [PV1019, 7-nitro-1H-indole-2-carboxylic acid {4-[1-(guanidinohydrazone)-ethyl]-phenyl}-amide]: the Antiproliferative effect result in the series on cancer cell lines was “antiproliferative effect”. Besides, the “Potentiation of the cytotoxicity of topotecan and campothecan” value in series [2] (ovarian cancer cell lines) was “potentiation of the cytotoxicity”.
